Values quoted from earlier work, collected in patent publication US20230111712A1, “STABLE REACTIVE COMPOSITIONS FOR BIOCONJUGATION, PROBES, AND PROTEIN LABELING” (ARIZONA BOARD OF REGENTS ON BEHALF OF THE UNIVERSITY OF …, priority 2020, published 2023).

Details: reported value

SMILES: CCCN [propyl ammonium, propyl amine]
- pKa: 10.5
